Results published in ChEMBL document CHEMBL4219148, “Discovery of a highly potent orally bioavailable imidazo-[1, 2-a]pyrazine Aurora inhibitor” (Bioorg Med Chem Lett, 2018).

What was measured:
[1] = AUC (0 to 48 hrs) in monkey at 1 mg/kg, iv; type: ADME, organism-based, Macaca mulatta; parameters: time < 48 hr, dose 1 mg/kg, route intravenous; conditions: rhesus monkey, in vivo
Aurora kinase B [2] = target: T1, Aurora kinase B (Homo sapiens, UniProt Q96GD4); assay: Inhibition of Aurora B in human HCT116 cells assessed as reduction in phosphorylation of Histone H3 at Ser10 residue incubated for 1 hr by Hoechst 33342 dye-based immunofluorescence microscopic method; type: cell-based
[3] = target: T2, Calcium/calmodulin-dependent protein kinase type IV (Homo sapiens, UniProt Q16566); assay: Inhibition of CAMK4 (unknown origin)
T2 sequence (Q16566 whole entry): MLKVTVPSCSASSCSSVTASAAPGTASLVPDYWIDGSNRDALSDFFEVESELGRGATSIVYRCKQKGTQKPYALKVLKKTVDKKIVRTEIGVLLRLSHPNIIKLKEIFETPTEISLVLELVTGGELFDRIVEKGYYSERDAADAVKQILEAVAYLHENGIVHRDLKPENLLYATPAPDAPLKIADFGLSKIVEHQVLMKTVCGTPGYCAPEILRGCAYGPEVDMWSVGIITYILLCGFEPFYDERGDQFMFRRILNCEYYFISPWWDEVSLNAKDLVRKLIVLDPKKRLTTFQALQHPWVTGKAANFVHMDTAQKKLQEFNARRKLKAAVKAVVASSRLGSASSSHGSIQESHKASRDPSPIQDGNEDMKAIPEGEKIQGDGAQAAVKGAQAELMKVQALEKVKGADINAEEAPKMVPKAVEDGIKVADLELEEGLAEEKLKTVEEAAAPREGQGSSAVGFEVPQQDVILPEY

[4] = target: Tyrosine-protein kinase JAK2 (Homo sapiens, UniProt O60674); assay: Inhibition of JAK2 (unknown origin)
[5] = Clearance in dog at 1 mg/kg, iv; type: ADME, organism-based, Canis lupus familiaris; conditions: in vivo
[6] = Oral bioavailability in dog at 3 mg/kg; type: ADME, organism-based, Canis lupus familiaris; conditions: in vivo
Aurora kinase B [7] = target: T1, Aurora kinase B; assay: Inhibition of Aurora B (unknown origin) using Tamra-PKAtide as substrate by fluorescence polarization assay
[8] = target: Insulin-like growth factor 1 receptor (Homo sapiens, UniProt P08069); assay: Inhibition of IGF1R (unknown origin)
Aurora kinase B [9] = target: T1, Aurora kinase B; assay: Binding affinity to Aurora B (unknown origin) after 45 mins by fluorescence-based thermal stability shift assay
[10] = target: Epidermal growth factor receptor (Homo sapiens, UniProt P00533); assay: Inhibition of EGFR (unknown origin)
[11] = target: Casein kinase I isoform delta (Homo sapiens, UniProt P48730); assay: Inhibition of CSNK1D (unknown origin)
[12] = target: Serine/threonine-protein kinase Nek2 (Homo sapiens, UniProt P51955); assay: Inhibition of NEK2 (unknown origin)
[13] = target: Hepatocyte growth factor receptor (Homo sapiens, UniProt P08581); assay: Inhibition of MET (unknown origin)
[14] = AUC (0 to 24 hrs) in mouse at 3 mg/kg, iv; type: ADME, organism-based; parameters: time < 24 hr, dose 3 mg/kg, route intravenous; conditions: in vivo
[15] = Volume of distribution in dog at 1 mg/kg, iv; type: ADME, organism-based, Canis lupus familiaris; conditions: in vivo
[16] = Volume of distribution in mouse at 3 mg/kg, iv; type: ADME, organism-based; conditions: in vivo
[17] = target: T3, Receptor-type tyrosine-protein kinase FLT3 (Homo sapiens, UniProt P36888); assay: Inhibition of FLT3 (unknown origin)
T3 sequence (P36888 whole entry): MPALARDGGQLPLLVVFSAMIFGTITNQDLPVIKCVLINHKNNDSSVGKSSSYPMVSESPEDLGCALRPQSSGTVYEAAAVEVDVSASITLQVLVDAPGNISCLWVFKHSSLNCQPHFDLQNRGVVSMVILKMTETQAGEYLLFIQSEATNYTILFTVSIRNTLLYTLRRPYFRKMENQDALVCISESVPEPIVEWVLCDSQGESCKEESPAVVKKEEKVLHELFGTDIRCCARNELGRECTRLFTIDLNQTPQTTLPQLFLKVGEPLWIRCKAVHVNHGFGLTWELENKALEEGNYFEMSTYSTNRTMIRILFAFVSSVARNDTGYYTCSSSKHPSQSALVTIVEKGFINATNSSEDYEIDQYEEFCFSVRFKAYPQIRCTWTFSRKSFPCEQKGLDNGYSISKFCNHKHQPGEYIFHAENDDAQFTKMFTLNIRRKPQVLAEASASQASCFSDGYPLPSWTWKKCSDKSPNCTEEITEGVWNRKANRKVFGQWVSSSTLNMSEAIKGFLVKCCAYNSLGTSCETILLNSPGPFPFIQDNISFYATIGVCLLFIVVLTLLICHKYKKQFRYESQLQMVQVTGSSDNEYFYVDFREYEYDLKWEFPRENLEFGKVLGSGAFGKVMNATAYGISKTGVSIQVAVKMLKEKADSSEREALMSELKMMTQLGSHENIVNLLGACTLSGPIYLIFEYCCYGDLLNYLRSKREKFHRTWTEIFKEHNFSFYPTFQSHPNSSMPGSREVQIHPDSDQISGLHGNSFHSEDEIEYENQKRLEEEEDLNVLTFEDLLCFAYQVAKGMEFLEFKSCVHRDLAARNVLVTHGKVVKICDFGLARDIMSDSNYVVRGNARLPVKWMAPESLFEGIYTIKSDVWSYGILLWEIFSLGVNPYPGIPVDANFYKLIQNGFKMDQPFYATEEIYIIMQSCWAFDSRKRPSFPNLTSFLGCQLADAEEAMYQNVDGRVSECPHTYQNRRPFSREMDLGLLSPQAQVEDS

[18] = target: Serine/threonine-protein kinase PLK3 (Homo sapiens, UniProt Q9H4B4); assay: Inhibition of PLK3 (unknown origin)
[19] = Half life in monkey at 1 mg/kg, iv; type: ADME, organism-based, Macaca mulatta; conditions: rhesus monkey, in vivo
Aurora kinase A = target: T4, Aurora kinase A (Homo sapiens, UniProt O14965); assay: Inhibition of Aurora A (unknown origin) using Tamra-PKAtide as substrate by fluorescence polarization assay
T4 sequence (O14965 whole entry): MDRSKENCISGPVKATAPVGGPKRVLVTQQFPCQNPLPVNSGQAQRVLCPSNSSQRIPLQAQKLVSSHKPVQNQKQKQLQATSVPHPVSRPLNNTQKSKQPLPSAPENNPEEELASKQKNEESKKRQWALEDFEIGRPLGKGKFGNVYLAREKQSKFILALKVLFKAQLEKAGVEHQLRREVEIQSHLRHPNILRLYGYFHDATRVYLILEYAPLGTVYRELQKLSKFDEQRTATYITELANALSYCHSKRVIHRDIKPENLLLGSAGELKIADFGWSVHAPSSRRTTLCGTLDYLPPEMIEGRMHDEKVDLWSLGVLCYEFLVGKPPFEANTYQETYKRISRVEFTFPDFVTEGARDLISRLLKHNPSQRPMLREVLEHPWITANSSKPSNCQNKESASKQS

[20] = AUC (0 to 48 hrs) in dog at 1 mg/kg, iv; type: ADME, organism-based, Canis lupus familiaris; parameters: dose 1 mg/kg, time < 48 hr, route intravenous; conditions: in vivo
[21] = Apparent permeability from apical to basolateral side in human intestinal Caco2 cells; type: ADME, cell-based; conditions: Caco-2
[22] = Half life in mouse at 3 mg/kg, iv; type: ADME, organism-based; conditions: in vivo
[23] = target: Cyclin-dependent kinase 2 (Homo sapiens, UniProt P24941); assay: Inhibition of CDK2 (unknown origin)

Hepatocyte growth factor receptor, sequence (P08581 whole entry): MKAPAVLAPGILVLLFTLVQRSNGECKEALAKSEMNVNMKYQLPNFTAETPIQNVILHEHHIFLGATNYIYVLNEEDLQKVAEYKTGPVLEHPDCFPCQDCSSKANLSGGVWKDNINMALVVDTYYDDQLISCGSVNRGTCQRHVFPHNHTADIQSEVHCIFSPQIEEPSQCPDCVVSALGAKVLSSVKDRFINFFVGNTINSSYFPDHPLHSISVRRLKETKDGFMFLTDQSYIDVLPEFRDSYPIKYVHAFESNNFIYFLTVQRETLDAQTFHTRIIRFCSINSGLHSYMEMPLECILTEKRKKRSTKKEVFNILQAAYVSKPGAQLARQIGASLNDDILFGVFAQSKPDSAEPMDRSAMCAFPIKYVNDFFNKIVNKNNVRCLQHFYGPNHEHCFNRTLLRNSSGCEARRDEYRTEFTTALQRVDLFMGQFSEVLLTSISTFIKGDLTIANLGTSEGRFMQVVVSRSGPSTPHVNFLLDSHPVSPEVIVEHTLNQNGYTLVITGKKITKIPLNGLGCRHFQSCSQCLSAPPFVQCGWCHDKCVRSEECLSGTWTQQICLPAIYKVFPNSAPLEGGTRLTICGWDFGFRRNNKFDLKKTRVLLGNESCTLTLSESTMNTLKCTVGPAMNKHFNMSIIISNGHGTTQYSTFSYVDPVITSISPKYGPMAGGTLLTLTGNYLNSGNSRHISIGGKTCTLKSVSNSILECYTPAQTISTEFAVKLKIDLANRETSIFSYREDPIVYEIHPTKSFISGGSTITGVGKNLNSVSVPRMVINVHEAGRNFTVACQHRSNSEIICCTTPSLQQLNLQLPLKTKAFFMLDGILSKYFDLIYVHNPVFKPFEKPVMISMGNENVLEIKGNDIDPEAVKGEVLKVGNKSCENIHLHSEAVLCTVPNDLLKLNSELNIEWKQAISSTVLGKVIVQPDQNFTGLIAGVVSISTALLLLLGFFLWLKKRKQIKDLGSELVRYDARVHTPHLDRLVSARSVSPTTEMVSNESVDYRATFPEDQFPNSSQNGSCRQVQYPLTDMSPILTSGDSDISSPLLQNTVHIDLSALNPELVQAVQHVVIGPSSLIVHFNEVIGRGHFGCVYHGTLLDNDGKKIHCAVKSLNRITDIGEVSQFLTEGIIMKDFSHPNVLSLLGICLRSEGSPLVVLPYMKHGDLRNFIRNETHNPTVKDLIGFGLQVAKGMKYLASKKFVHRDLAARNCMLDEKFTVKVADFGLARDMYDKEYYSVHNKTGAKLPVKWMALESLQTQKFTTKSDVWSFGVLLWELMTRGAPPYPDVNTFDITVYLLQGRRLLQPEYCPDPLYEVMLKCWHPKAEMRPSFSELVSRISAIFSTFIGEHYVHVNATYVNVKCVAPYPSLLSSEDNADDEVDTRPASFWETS
Serine/threonine-protein kinase PLK3, sequence (Q9H4B4 whole entry): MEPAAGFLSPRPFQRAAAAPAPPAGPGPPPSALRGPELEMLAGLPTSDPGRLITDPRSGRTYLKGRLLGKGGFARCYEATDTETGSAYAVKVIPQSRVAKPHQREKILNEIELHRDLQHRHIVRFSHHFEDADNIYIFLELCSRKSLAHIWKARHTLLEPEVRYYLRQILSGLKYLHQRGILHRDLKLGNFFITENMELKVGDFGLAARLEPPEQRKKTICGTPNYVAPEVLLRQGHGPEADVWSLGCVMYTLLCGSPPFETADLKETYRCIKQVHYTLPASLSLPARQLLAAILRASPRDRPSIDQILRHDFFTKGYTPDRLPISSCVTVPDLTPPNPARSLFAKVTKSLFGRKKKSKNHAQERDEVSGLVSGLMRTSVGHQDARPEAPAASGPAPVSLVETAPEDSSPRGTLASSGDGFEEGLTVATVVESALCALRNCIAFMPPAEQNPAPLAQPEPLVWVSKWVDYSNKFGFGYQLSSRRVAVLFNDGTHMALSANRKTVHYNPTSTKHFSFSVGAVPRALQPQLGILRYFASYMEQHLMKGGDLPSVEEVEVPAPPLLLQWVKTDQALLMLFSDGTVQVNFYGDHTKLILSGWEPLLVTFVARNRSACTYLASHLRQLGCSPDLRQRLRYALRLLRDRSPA
Tyrosine-protein kinase JAK2, sequence (O60674 whole entry): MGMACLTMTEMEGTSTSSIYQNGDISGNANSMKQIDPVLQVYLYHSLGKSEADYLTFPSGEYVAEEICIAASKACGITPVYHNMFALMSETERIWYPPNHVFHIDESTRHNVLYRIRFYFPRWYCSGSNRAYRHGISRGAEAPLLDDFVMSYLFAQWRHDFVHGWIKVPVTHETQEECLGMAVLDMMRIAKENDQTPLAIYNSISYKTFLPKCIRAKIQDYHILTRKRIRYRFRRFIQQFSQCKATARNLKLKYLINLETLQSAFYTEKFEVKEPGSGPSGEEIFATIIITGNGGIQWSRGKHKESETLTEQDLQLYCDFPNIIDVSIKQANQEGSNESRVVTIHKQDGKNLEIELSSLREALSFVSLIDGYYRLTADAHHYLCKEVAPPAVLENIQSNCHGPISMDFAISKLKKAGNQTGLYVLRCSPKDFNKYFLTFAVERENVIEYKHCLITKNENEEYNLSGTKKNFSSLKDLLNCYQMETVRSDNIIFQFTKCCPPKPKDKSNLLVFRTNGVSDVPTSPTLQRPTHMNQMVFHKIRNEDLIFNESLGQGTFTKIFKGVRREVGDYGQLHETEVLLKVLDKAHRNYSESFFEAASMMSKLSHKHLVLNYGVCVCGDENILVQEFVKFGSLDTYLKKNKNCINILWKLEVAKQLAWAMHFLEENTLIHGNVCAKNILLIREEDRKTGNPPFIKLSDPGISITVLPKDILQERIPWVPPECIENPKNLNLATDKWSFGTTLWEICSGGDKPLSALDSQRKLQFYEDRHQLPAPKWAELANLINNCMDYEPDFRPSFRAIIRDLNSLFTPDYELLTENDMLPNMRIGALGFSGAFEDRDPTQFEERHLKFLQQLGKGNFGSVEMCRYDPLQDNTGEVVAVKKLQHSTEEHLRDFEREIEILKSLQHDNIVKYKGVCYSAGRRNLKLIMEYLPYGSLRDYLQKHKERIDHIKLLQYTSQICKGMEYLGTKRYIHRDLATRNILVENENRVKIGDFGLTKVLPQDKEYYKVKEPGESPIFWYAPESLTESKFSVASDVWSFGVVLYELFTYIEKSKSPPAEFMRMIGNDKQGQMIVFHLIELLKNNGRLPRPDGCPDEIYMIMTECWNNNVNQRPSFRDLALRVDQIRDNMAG
T1 sequence (Q96GD4 whole entry): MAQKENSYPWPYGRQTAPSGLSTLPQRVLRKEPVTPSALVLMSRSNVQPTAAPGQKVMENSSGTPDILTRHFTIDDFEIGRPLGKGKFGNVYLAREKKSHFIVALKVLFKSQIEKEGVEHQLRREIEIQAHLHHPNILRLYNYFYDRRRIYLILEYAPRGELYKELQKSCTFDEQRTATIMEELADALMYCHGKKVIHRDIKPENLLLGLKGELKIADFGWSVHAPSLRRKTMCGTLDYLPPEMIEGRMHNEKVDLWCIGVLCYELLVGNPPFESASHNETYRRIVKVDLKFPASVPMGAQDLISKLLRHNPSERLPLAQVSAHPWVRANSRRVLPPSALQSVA
Casein kinase I isoform delta, sequence (P48730 whole entry, canonical isoform): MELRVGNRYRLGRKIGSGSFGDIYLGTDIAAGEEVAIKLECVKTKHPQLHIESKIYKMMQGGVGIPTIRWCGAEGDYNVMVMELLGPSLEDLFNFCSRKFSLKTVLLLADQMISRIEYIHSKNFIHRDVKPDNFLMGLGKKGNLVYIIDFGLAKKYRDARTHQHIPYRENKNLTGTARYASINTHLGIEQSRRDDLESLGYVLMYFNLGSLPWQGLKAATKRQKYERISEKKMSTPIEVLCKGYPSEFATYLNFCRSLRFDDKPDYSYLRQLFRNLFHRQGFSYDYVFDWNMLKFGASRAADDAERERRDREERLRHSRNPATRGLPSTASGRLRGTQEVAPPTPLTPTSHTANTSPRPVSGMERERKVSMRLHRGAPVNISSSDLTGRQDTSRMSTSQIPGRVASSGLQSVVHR
Serine/threonine-protein kinase Nek2, sequence (P51955 whole entry): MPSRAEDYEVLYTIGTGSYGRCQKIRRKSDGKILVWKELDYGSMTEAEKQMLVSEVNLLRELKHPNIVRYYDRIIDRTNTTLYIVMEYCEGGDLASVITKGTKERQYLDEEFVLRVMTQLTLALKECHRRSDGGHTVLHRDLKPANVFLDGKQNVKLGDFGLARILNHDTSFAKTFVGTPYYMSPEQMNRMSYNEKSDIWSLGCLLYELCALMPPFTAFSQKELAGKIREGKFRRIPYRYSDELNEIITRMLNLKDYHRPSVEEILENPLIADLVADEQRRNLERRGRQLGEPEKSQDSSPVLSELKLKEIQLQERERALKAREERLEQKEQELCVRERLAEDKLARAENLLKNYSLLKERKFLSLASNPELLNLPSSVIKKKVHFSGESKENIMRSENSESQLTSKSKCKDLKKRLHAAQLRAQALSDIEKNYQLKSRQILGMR

EC50 (Aurora kinase B [2]) [nM]	IC50 [3] [nM]	IC50 [4] [nM]	IC50 (Aurora kinase B [7]) [nM]	IC50 [8] [nM]	IC50 [10] [nM]	IC50 [11] [nM]	IC50 [12] [nM]	IC50 [13] [nM]	IC50 [17] [nM]	IC50 [18] [nM]	IC50 (Aurora kinase A) [nM]	Papp A→B [21] [×10⁻⁶ cm/s]	IC50 [23] [nM]	Structure (SMILES)	AUC(0-t) at 48 h [1] [µM·h]	clearance [5] [mL/min/kg]	bioavailability [6] [%]	Kd (Aurora kinase B [9]) [nM]	AUC(0-t) at 24 h [14] [µM·h]	Vd [15] [L/kg]	further results
117	> 500	> 500	< 13	> 500	> 500	> 500	> 500	> 500	14	> 500	< 4	2.8	> 500	Cc1cn2c(-c3cn[nH]c3)cnc2c(Nc2cc(Cc3ccccn3)ns2)n1	1.7	5	15	0.1	1.1	0.2	Vd [16]: 1.6 L/kg; half-life [19]: 0.5 h; AUC(0-t) at 48 h [20]: 9.2 µM·h; half-life [22]: 0.2 h
24	> 500	> 500	< 13	> 500	> 500	> 500	> 500	> 500	5	> 500	< 4	2.1	> 500	CCN(CCO)Cc1cc(Nc2nc(C)cn3c(-c4cn[nH]c4)cnc23)sn1							

Structure (SMILES)	EC50 (Aurora kinase B [2]) [nM]	IC50 [3] [nM]	IC50 [4] [nM]	IC50 (Aurora kinase B [7]) [nM]	IC50 [8] [nM]	IC50 [10] [nM]	IC50 [11] [nM]	IC50 [12] [nM]	IC50 [13] [nM]	IC50 [17] [nM]	IC50 [18] [nM]	IC50 (Aurora kinase A) [nM]	Papp A→B [21] [×10⁻⁶ cm/s]	IC50 [23] [nM]	AUC(0-t) at 48 h [1] [µM·h]	clearance [5] [mL/min/kg]	bioavailability [6] [%]	Kd (Aurora kinase B [9]) [nM]	AUC(0-t) at 24 h [14] [µM·h]	Vd [15] [L/kg]	further results
Cc1cn2c(-c3cn[nH]c3)cnc2c(Nc2cc(C(NC(C)(C)C)c3ccccn3)ns2)n1 (single isomer, unassigned; (+))	< 16	> 1000	> 1000	≤ 13	> 1000	> 1000	> 1000		> 1000	5	> 1000	≤ 4	2.4	> 1000	5	9.4	86	0.01	2.2	3.7	Vd [16]: 5.3 L/kg; half-life [19]: 2.2 h; AUC(0-t) at 48 h [20]: 3.9 µM·h; half-life [22]: 1.8 h
